{"source": "PubChem BioAssay AID1328", "about": "(NMMLSC, 2008)", "note": "Activity calls are given as the source filed them. How the calls were made is not given here."}
{"biological_target": "Apoptosis regulator Bcl-2 (Homo sapiens) (UniProt P10415)", "sequence (P10415 whole entry, looked up)": "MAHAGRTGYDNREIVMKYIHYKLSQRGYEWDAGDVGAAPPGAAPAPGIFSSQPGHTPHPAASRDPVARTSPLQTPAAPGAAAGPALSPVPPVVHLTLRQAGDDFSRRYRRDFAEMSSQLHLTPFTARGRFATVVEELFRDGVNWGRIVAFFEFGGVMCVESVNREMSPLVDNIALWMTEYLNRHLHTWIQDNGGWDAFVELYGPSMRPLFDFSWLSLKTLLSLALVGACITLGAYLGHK", "experiment": "Bim-Bcl-2 binding modulators, biochemical, multiplexed, high-throughput, human Bcl-2 (AID 1328)", "details": "Bead-based flow cytometry, fluorescent Bim peptide-Bcl-2 binding"}
{"smiles": "O=[N+]([O-])c1ccc(N/N=C/c2ccc(O)c(O)c2O)c(S(=O)(=O)N2CCOCC2)c1", "EC50": "inactive"}
{"smiles": "CN(C)[C@@H]1C(=O)C(C(=O)NCN2CCCC2)=C(O)[C@@]2(O)C(=O)C3=C(O)c4c(O)cccc4[C@@](C)(O)C3CC12", "note": "(stereo not given in full)", "EC50": "inactive"}
{"smiles": "Clc1ccc2c(N/N=C/c3ccccc3Br)ccnc2c1", "EC50": "inactive"}
{"smiles": "COc1cc(/C=N/Nc2nn3cnnc3c3ccccc23)ccc1O", "EC50": "inactive"}
{"smiles": "CCC(=O)N(CC)C1=C(O)c2ccccc2C(=O)C1=O", "EC50": "inactive"}
